Patent EP4810054A1, “NECROPTOSIS CONTROL AGENT” (The University of Tokyo, priority 2023, dated 2025)

Tests used:
[1] = system: MSP-1 neurons; assay: P-MLKL immunostaining (necroptosis) of MSP-1 neurons treated with culture supernatant of TNF-α-treated astrocytes; type: cell-based, mouse
Protocol: (§1) To obtain differentiated astrocytes, the above MSP-1 cells were harvested and cultured overnight in the MSP-1 proliferation medium on new dishes. The next day, for differentiation into astrocytes, the cells were cultured in serum-free DMEM/F12 medium containing N-2 supplement (R&D Systems), leukemia inhibitory factor (LIF, 10 ng/ml, Fujifilm Wako Pure Chemical Industries), and ciliary neurotrophic factor (CNTF, 10 ng/ml, Fujifilm Wako Pure Chemical Industries). For differentiation into neurons, the cells were cultured in serum-free DMEM/F12 medium containing only N-2 supplement. These media are referred to as MSP-1 differentiation media. Each medium was replaced with fresh medium every 2 days. For differentiation into astrocytes, in particular, on […], the cells were exposed to tumor necrosis factor-α (TNF-α, 100 ng/ml, Fujifilm Wako Pure Chemical Industries) for 24 hours. In the anserine treatment group, the cells were pretreated with L-anserine nitrate (Fujifilm Wako Pure Chemical Industries) for 2 hours prior to the exposure to TNF-α.
The harvested MSP-1 cells were cultured in the MSP-1 differentiation medium on poly-L-lysine/fibronectin-coated chamber glass (4-well, Watson) and differentiated into astrocytes. After the TNF-α treatment, the cells were fixed with 4% PFA for 10 minutes and washed with TBS for 10 minutes. Subsequently, the cells were blocked with 5% BSA diluted in 0.05% TBS-X at room temperature for 60 minutes, then incubated overnight at 4°C in a blocking solution containing primary antibodies. The primary antibodies used in this study were anti-GFAP (mouse, 1:1000, Sigma), anti-NeuN (mouse, 1:1000, Millipore), anti-NF-κB p65 (rabbit, 1:500, CST), and anti-P-MLKL (rabbit, 1:2000, Abcam). The cells were then washed three times with TBS for 5 minutes each, and incubated with secondary antibodies at room temperature for 2 hours. The secondary antibodies used in this study were anti-mouse IgG donkey Alexa 488 (1:1000, Molecular Probes) and anti-rabbit IgG donkey Alexa 568 (1:1000, Molecular Probes). After washing with TBS for 5 minutes, the sections were incubated with DAPI (1:10,000, Sigma) in TBS for 5 minutes, and then washed with TBS 2 times for 5 minutes each. The cells were visualized using a confocal microscope (FV3000-L4EN-TN21, Olympus).
(§2) To obtain differentiated astrocytes, the MSP-1 cells were harvested and cultured overnight in the MSP-1 proliferation medium on new dishes. The next day, the medium was replaced with serum-free DMEM/F12 medium containing N-2 supplement (R&D Systems), leukemia inhibitory factor (LIF, 10 ng/ml, Wako), and ciliary neurotrophic factor (CNTF, 10 ng/ml, Wako). This medium was referred to as astrocyte differentiation medium. The culture medium was replaced with fresh medium every 2 or 3 days. […]

[2] = system: male albino rats with experimentally induced sepsis; conditions: carnosine 25 mg/kg and 50 mg/kg for 30 days; cited from earlier work
[3] = system: MSP-1 neurons; assay: P-RIPK1 immunostaining of MSP-1 neurons treated with astrocyte culture medium; type: cell-based, mouse; conditions: MSP-1 neurons treated with anserine CM
Protocol: as §2, with “days. On day 5, the cells were exposed to tumor necrosis factor-α (TNF-α, 100 ng/ml, Wako) for 24 hours. For anserine treatment group, the cells were pretreated with L-anserine (Toronto Research Chemicals) for 2 hours prior to the exposure to TNF-α.” for “days.”
(§3) The cells were cultured on poly-L-lysine/fibronectin-coated chamber glass (4-well or 8-well, Watson) containing the respective MSP-1 differentiation media to induce differentiation into astrocytes or neurons. […] The images were analyzed and quantified using ImageJ.
(§4) Microscopic images were analyzed using the ImageJ software. For AT8, P-RIPK1, and P-MLKL staining, staining intensity was calculated. […] For P-P65 staining, only the staining intensity in the nucleus was calculated, and the data are presented as relative intensity ± S.E.M. for each group. At least 100 cells for each group were analyzed from at least 10 random images.

[4] = system: C3, Ccl2, Cxcl1, and iNOS; assay: Real-time PCR of inflammatory factor genes in TNF-α-treated MSP-1 astrocytes; type: cell-based, mouse
Protocol: as §2, with “days. On day 5, the cells were exposed to tumor necrosis factor-α (TNF-α, 100 ng/ml, Wako) for 24 hours. For anserine treatment group, the cells were pretreated with L-anserine (Toronto Research Chemicals) for 2 hours prior to the exposure to TNF-α. To obtain differentiated neurons, the culture medium for MSP-1 cells was replaced with the serum-free DMEM/F12 medium containing N-2 supplement. This medium was referred to as neuron differentiation medium. The culture medium was replaced with fresh medium every 2 days.” for “days.”
Reverse transcription reactions for cDNA synthesis were performed on the isolated RNA samples (500 ng) using SuperScript™ III Reverse Transcriptase (Thermo Fisher) according to the manufacturer's instructions. […] Analysis was performed by the 2-ΔΔ-Ct method, and the results are expressed as fold changes. […]

[5] = system: MSP-1 cells differentiated into astrocytes; assay: RNA sequencing (DEG, GO/KEGG, GSEA) of TNF-α-treated MSP-1 astrocytes; type: cell-based, mouse
Protocol: as §1
The MSP-1 cells differentiated into astrocytes were harvested by trypsin treatment, and total RNA was isolated using the RNeasy Mini Kit (Qiagen). Samples (10 ng input) were pretreated using the SMART-seq Stranded Kit (Takara, Japan). Sequencing was performed using Illumina NovaSeq 6000 (Illumina, USA).
Gene expression levels were assessed by using transcripts per million (TPM) data, and differentially expressed genes (DEGs) were identified using the DESeq2 package in the R environment. Genes with p-values less than 0.05 were considered DEGs. […] Gene set enrichment analysis (GSEA) was performed based on the TPM data.
On day 5, TNF-α (100 ng/ml) was added to the MSP-1 cells differentiated into astrocytes, and the cells were treated for 24 hours. In the TNF-α + anserine group, 10 µM anserine was added to the culture medium 2 hours prior to the TNF-α treatment. These cells were harvested, and RNA sequencing (RNA-seq) analysis was performed to examine the expressed genes. […] Necroptosis-promoting factors such as C3, Ccl2, Ccl7, and Cxcl1 increased after the TNF-α treatment and decreased in the TNF-α + anserine group.
(§5) To obtain differentiated astrocytes, the MSP-1 cells were harvested and cultured overnight in the MSP-1 proliferation medium on new dishes. The next day, the medium was replaced with serum-free DMEM/F12 medium containing N-2 supplement (R&D Systems), leukemia inhibitory factor (LIF, 10 ng/ml, Wako), and ciliary neurotrophic factor (CNTF, 10 ng/ml, Wako). This medium was referred to as astrocyte differentiation medium. The culture medium was replaced with fresh medium every 2 or 3 days. On day 5, the cells were exposed to tumor necrosis factor-α (TNF-α, 100 ng/ml, Wako) for 24 hours. For anserine treatment group, the cells were pretreated with L-anserine (Toronto Research Chemicals) for 2 hours prior to the exposure to TNF-α. To obtain differentiated neurons, the culture medium for MSP-1 cells was replaced with the serum-free DMEM/F12 medium containing N-2 supplement. This medium was referred to as neuron differentiation medium. The culture medium was replaced with fresh medium every 2 days. On day 5, the cells were treated for 24 hours with the culture supernatant of the astrocytes induced from MSP-1 cells. Nec-1 and the C3aR antagonist (SB290157) were purchased from Selleck.
Total RNA was isolated from isolated astrocytes and astrocytes differentiated from MSP-1 cells using RNeasy Mini Kit (Qiagen). RNA samples in an amount of 1 ng (isolated astrocytes) or 10 ng (cultured astrocytes) were pretreated using the SMART-seq Stranded Kit (Takara Bio, Japan). Sequencing was performed using Illumina NovaSeq 6000 (Illumina, USA). Gene expression levels were evaluated using transcripts per million (TPM) data, and differentially expressed genes (DEGs) were identified using the DESeq2 package in the R environment. […]

[6] = Stability of anserine (temperature, storage in solution); type: physicochemical
[7] = system: MSP-1 neurons; assay: AT8 (tau phosphorylation) immunostaining of MSP-1 neurons treated with astrocyte culture medium; type: cell-based, mouse
Protocol: To obtain differentiated astrocytes, the MSP-1 cells were harvested and cultured overnight in the MSP-1 proliferation medium on new dishes. The next day, the medium was replaced with serum-free DMEM/F12 medium containing N-2 supplement (R&D Systems), leukemia inhibitory factor (LIF, 10 ng/ml, Wako), and ciliary neurotrophic factor (CNTF, 10 ng/ml, Wako). This medium was referred to as astrocyte differentiation medium. The culture medium was replaced with fresh medium every 2 or 3 days. On day 5, the cells were exposed to tumor necrosis factor-α (TNF-α, 100 ng/ml, Wako) for 24 hours. For anserine treatment group, the cells were pretreated with L-anserine (Toronto Research Chemicals) for 2 hours prior to the exposure to TNF-α. […]
as §3, §4

[8] = system: phosphorylated IKK complex; assay: Phosphorylated IKK immunostaining in TNF-α-treated MSP-1 astrocytes; type: cell-based, mouse; conditions: MSP-1 astrocytes treated with TNF-α, addition of anserine; Fig. 6
Protocol: as §5, with “Nec-1 and the C3aR antagonist (SB290157) were purchased from Selleck.” left out
as §3

[9] = system: phospho-NF-κB; assay: Immunostaining of phospho-NF-κB (P-P65) in TNF-α-treated MSP-1 astrocytes; type: cell-based, mouse
Protocol: The harvested MSP-1 cells were cultured in the MSP-1 differentiation medium on poly-L-lysine/fibronectin-coated chamber glass (4-well, Watson) and differentiated into astrocytes. After the TNF-α treatment, the cells were fixed with 4% PFA for 10 minutes and washed with TBS for 10 minutes. Subsequently, the cells were blocked with 5% BSA diluted in 0.05% TBS-X at room temperature for 60 minutes, then incubated overnight at 4°C in a blocking solution containing primary antibodies. The primary antibodies used in this study were anti-GFAP (mouse, 1:1000, Sigma), anti-NeuN (mouse, 1:1000, Millipore), anti-NF-κB p65 (rabbit, 1:500, CST), and anti-P-MLKL (rabbit, 1:2000, Abcam). […]
as §3, §4

[10] = Example 2, MSP-1 astrocytes pretreated with anserine before TNF-α, Fig. 5A
[11] = 10 µM anserine 2 hours prior to TNF-α 100 ng/ml, 24 hours, versus TNF-α group
[12] = 10 µM anserine added 2 hours prior to TNF-α (100 ng/ml, 24 hours), RNA-seq

Compound: CN1C(=O)C(Cc2c[nH]c3ccccc23)NC1=S (centres unmarked) [Nec-1, necrostatin-1, reference compound]
- p-MLKL intensity ([1]; MSP-1 neurons treated with TNF CM plus Nec 1 (30 µM), Fig. 4): decreased significantly to the same level

Compound: N=C(N)NCCCC(NC(=O)COCC(c1ccccc1)c1ccccc1)C(=O)O (centres unmarked) [C3aR antagonist, reference compound]
- p-MLKL intensity ([1]; MSP-1 neurons treated with TNF CM plus C3aRA (10 µM), Fig. 4): decreased significantly

Compound: NCCC(=O)N[C@@H](Cc1cnc[nH]1)C(=O)O [carnosine]
- IL-β, TNF-α, and MIF [2]: reduced
- expression of IκBα [2]: increased
- increased expression of p65 and p-IKKα/β (Ser 180/Ser 181) [2]: suppressed
- lipid peroxidation and other antioxidant enzymes [2]: significantly normalized

Compound: Cn1cncc1C[C@H](NC(=O)CCN)C(=O)O [anserine, (2S)-2-[(3-amino-1-oxopropyl)amino]-3-(3-methyl-4-imidazolyl)propanoic acid]
- intensity of P-RIPK1 [3]: significant decrease
- expressions of inflammatory factors such as C3 [4, 10]: decreased
- expressions of C3, Ccl2, Cxcl1, and iNOS (real-time PCR) ([4]; anserine treatment group versus TNF-α treatment group, Fig. 2D): significantly decreased
- Mfge8 (milk fat globule-EGF factor 8) expression (RNA-seq) [5, 11]: increased
- Necroptosis-promoting factors such as C3, Ccl2, Ccl7, and Cxcl1 (expression, RNA-seq) [5, 11]: decreased
- DEGs down-regulated, TNF-α + anserine vs TNF-α treatment group [5, 12]: 169
- DEGs up-regulated, TNF-α + anserine vs TNF-α treatment group [5, 12]: 159
- differentially expressed genes (DEGs) in the TNF-α + anserine treatment group in comparison with the TNF-α treatment group [5, 12]: 328
- complement activation [5, 10]: reduced
- expression of gene groups involved in necroptosis induction (chemokine signaling pathway, response to cytokine, immune response, TNF signaling-related genes), GO and KEGG analyses ([5]; TNF-α + anserine group): significant decrease in expression
- expressions of inflammation-related genes, chemokine pathway, and complement activation pathway (GSEA) ([5]; TNF-α + anserine group versus TNF-α group): decreased
- intensity of P-MLKL ([1]; MSP-1 neurons treated with anserine CM, Fig. 4): significant decrease
- necroptosis of MSP-1 neurons (expression of P-MLKL in necrosomes) ([1]; culture supernatant containing 10 mM anserine in addition to TNF-α, compared with sham group, Fig. 3): suppressed to a degree comparable to that observed with untreated culture supernatant (sham group)
- stable storage in solution (duration) ([6]; in solution): at least two years and nine months
- stability at room temperature and under conditions of 180°C or lower ([6]; room temperature, 180°C or lower): sufficiently stable
- intensity of AT8 ([7]; MSP-1 neurons treated with anserine CM): significant decrease
- tau-phosphorylation (p-tau expression, AT-8 staining) ([7]; MSP-1 neurons treated with culture medium from TNF-α + anserine group (anserine CM), Fig. 4): did not exhibit such p-tau expression
- expression of the phosphorylated IKK complex [8]: reduced
- NF-κB activity [9, 10]: reduced
- expression of phospho-NF-κB ([9]; anserine treatment, TNF-α-induced MSP-1 astrocytes, Figs. 2B and 2C): reduced
